Reference: patent US11260023B2, “Topical compositions containing rofecoxib and methods of making and using the same” (BRIORI BIOTECH, LLC, priority 2020, dated 2022)
Values joined by “and” are separate entries in the source; they are usually repeats but may differ in a detail not shown here. Identical values can stand only once.

Assay: Solubility of rofecoxib in solvent systems containing two or three solvents; synergistic or antagonist effect
Format: physicochemical
Protocol: The solubility of rofecoxib in solvent systems containing two or three solvents was determined. In solvent systems containing two solvents, […] of each solvent was added to 100 mg of rofecoxib. In solvent systems containing three solvents, […] of each solvent was added to 100 mg of rofecoxib. The samples were mixed using the protocol for solvent systems containing single solvents above. Serial dilutions of the rofecoxib solvent solutions were made (1:100 v:v), (1:1000 v/v), and (1:2000 v/v). Solvents without rofecoxib were diluted with methanol and used to blank a Beckman DU-7400 spectrophotometer. The absorbance of the samples was determined at a wavelength of 279.1 nm. The concentration of rofecoxib dissolved in the solvent was calculated using Beer's Law. The ability of the solvent systems to synergistically dissolve rofecoxib or antagonistically dissolve rofecoxib (reduce the ability of rofecoxib to dissolve was determined) according to the protocol below. The contribution for solubility of a single solvent in a two-mixture solution was calculated to be ½ of the calculated solubility of rofecoxib in one gram of excipient. Likewise, the contribution for solubility of a three-mixture was calculated to be ⅓ of the calculated solubility of rofecoxib in one gram of excipient. The expected solubility for a mixture is the addition of the contribution of each excipient. […] The percent change between the expected solubility and actual solubility was determined. […] Similar calculations are utilized for solvent systems containing three or more solvents.

% Change (observed vs expected solubility) (in DI + PGD): 123.9%
Expected Solubility (in DI + PGD): 23.04 mg/g
Observed Solubility (in DI + PGD): 28.54 mg/g
% Change (observed vs expected solubility) (in EA + AC): 79.1%
Expected Solubility (in EA + AC): 14.52 mg/g
Observed Solubility (in EA + AC): 11.49 mg/g
% Change (observed vs expected solubility) (in EA + AT): 82.6%
Expected Solubility (in EA + AT): 2.91 mg/g
Observed Solubility (in EA + AT): 2.40 mg/g
% Change (observed vs expected solubility) (in EA + BA): 94.1%
Expected Solubility (in EA + BA): 12.52 mg/g
Observed Solubility (in EA + BA): 11.78 mg/g
% Change (observed vs expected solubility) (in EA + DGME): 55.4%
Expected Solubility (in EA + DGME): 7.29 mg/g
Observed Solubility (in EA + DGME): 4.04 mg/g
% Change (observed vs expected solubility) (in EA + DI): 62.0%
Expected Solubility (in EA + DI): 22.32 mg/g
Observed Solubility (in EA + DI): 13.84 mg/g
% Change (observed vs expected solubility) (in EA + DIA): 85.7%
Expected Solubility (in EA + DIA): 3.77 mg/g
Observed Solubility (in EA + DIA): 3.23 mg/g
% Change (observed vs expected solubility) (in EA + DMSO): 122.9%
Expected Solubility (in EA + DMSO): 74.55 mg/g
Observed Solubility (in EA + DMSO): 91.63 mg/g
% Change (observed vs expected solubility) (in EA + DS): 88.0%
Expected Solubility (in EA + DS): 3.67 mg/g
Observed Solubility (in EA + DS): 3.22 mg/g
% Change (observed vs expected solubility) (in EA + IPTD): 41.5%
Expected Solubility (in EA + IPTD): 2.75 mg/g
Observed Solubility (in EA + IPTD): 1.14 mg/g
% Change (observed vs expected solubility) (in EA + M24D): 110.4%
Expected Solubility (in EA + M24D): 3.05 mg/g
Observed Solubility (in EA + M24D): 3.36 mg/g
% Change (observed vs expected solubility) (in EA + MP): 75.3%
Expected Solubility (in EA + MP): 101.75 mg/g
Observed Solubility (in EA + MP): 76.59 mg/g
% Change (observed vs expected solubility) (in EA + OA): 38.5%
Expected Solubility (in EA + OA): 2.95 mg/g
Observed Solubility (in EA + OA): 1.14 mg/g
% Change (observed vs expected solubility) (in EA + PC): 103.9%
Expected Solubility (in EA + PC): 27.47 mg/g
Observed Solubility (in EA + PC): 28.53 mg/g
% Change (observed vs expected solubility) (in EA + PEG): 120.0%
Expected Solubility (in EA + PEG): 9.32 mg/g
Observed Solubility (in EA + PEG): 11.19 mg/g
% Change (observed vs expected solubility) (in EA + PGD): 109.1% and 100.3%
Expected Solubility (in EA + PGD): 6.22 mg/g
Observed Solubility (in EA + PGD): 6.78 mg/g and 6.23 mg/g
% Change (observed vs expected solubility) (in EA + PPG): 156.1%
Expected Solubility (in EA + PPG): 2.90 mg/g
Observed Solubility (in EA + PPG): 4.53 mg/g
% Change (observed vs expected solubility) (in EA + PS20): 107.9%
Expected Solubility (in EA + PS20): 7.34 mg/g
Observed Solubility (in EA + PS20): 7.92 mg/g
% Change (observed vs expected solubility) (in EA + PS80): 105.8%
Expected Solubility (in EA + PS80): 7.61 mg/g
Observed Solubility (in EA + PS80): 8.05 mg/g
% Change (observed vs expected solubility) (in MP + EA): 71.4%
Expected Solubility (in MP + EA): 107.75 mg/g
Observed Solubility (in MP + EA): 76.89 mg/g
% Change (observed vs expected solubility) (in MP + PEG + PGD): 35.17%
Expected Solubility (in MP + PEG + PGD): 72.69 mg/g
Expected Solubility (in PC + AC): 36.48 mg/g and 36.5 mg/g
% Change (observed vs expected solubility) (in PC + AC + MP): 34.18%
Expected Solubility (in PC + AC + MP): 90.34 mg/g
% Change (observed vs expected solubility) (in PC + AC + PEG): 123.74%
Expected Solubility (in PC + AC + PEG): 28.72 mg/g
Observed Solubility (in PC + AC + PEG): 35.53 mg/g
% Change (observed vs expected solubility) (in PC + AC + PGD): 200.59% and 129.71% and 114.18%
Expected Solubility (in PC + AC + PGD): 26.65 mg/g
Observed Solubility (in PC + AC + PGD): 53.45 mg/g and 34.56 mg/g
% Change (observed vs expected solubility) (in PC + BA): 99.3%
Expected Solubility (in PC + BA): 34.49 mg/g
Observed Solubility (in PC + BA): 34.26 mg/g
% Change (observed vs expected solubility) (in PC + BA + AC): 134.75%
Expected Solubility (in PC + BA + AC): 30.85 mg/g
Observed Solubility (in PC + BA + AC): 41.57 mg/g
% Change (observed vs expected solubility) (in PC + BA + DMSO): 85.64%
Expected Solubility (in PC + BA + DMSO): 70.86 mg/g
% Change (observed vs expected solubility) (in PC + BA + MP): 21.30%
Expected Solubility (in PC + BA + MP): 88.99 mg/g
% Change (observed vs expected solubility) (in PC + BA + PEG): 63.48%
Expected Solubility (in PC + BA + PEG): 27.37 mg/g
% Change (observed vs expected solubility) (in PC + BA + PGD): 84.91%
Expected Solubility (in PC + BA + PGD): 25.30 mg/g
% Change (observed vs expected solubility) (in PC + MP): 69.3%
Expected Solubility (in PC + MP): 123.72 mg/g
Observed Solubility (in PC + MP): 85.76 mg/g
% Change (observed vs expected solubility) (in PC + MP + PEG): 46.39%
Expected Solubility (in PC + MP + PEG): 86.86 mg/g
% Change (observed vs expected solubility) (in PC + MP + PGD): 21.70%
Expected Solubility (in PC + MP + PGD): 84.79 mg/g
% Change (observed vs expected solubility) (in PC + PEG + PGD): 153.76%
Expected Solubility (in PC + PEG + PGD): 23.17 mg/g
Observed Solubility (in PC + PEG + PGD): 35.62 mg/g
% Change (observed vs expected solubility) (in PC + PGD): 123.0% and 97.8%
Expected Solubility (in PC + PGD): 28.18 mg/g
Observed Solubility (in PC + PGD): 34.66 mg/g and 27.55 mg/g
% Change (observed vs expected solubility) (in PEG + DGME): 119.7%
Expected Solubility (in PEG + DGME): 11.11 mg/g
Observed Solubility (in PEG + DGME): 13.30 mg/g
% Change (observed vs expected solubility) (in PEG + EA): 150.3%
Expected Solubility (in PEG + EA): 9.32 mg/g
Observed Solubility (in PEG + EA): 14.00 mg/g
% Change (observed vs expected solubility) (in PEG + PGD): 124.5% and 120.8%
Expected Solubility (in PEG + PGD): 10.04 mg/g
Observed Solubility (in PEG + PGD): 12.50 mg/g and 12.13 mg/g
SMILES: CS(=O)(=O)c1ccc(C2=C(c3ccccc3)C(=O)OC2)cc1 [Rofecoxib]
